From paper PMC7998589, “A Radiobrominated Tyrosine Kinase Inhibitor for EGFR with L858R/T790M Mutations in Lung Carcinoma” (Pharmaceuticals, 2021)

Assays:
[1] = tested on: H1975 (EGFR L858R/T790M); assay: WST-8 cytotoxicity assay, H1975; type: cell-based; conditions: Homo sapiens, NCI-H1975
From the text: (§1) The data were statistically analyzed and presented as mean ± standard deviation (SD).

[2] = tested on: H3255 (EGFR L858R); assay: WST-8 cytotoxicity assay, H3255; type: cell-based; conditions: Homo sapiens, NCI-H3255
From the text: as §1

[3] = tested on: H441 (wild-type EGFR); assay: WST-8 cytotoxicity assay, H441; type: cell-based; conditions: Homo sapiens, NCI-H441
From the text: as §1

[4] = tested on: H1975 (L858R/T790M double mutations EGFR); assay: Cellular uptake and blocking study, H1975; type: cell-based, human
Experimental: H1975 (1 × 10^5 cells/well), H441 (1 × 10^5 cells/well), and H3255 (2 × 10^5 cells/well) NSCLC cells were cultured in 6 well plates. Cells were incubated in medium with 10% FBS and 100 IU/mL penicillin–streptomycin at 37 °C in a humidified atmosphere with 5% CO2 for 24 h. […] The cells were dissolved by a 1.0 M NaOH aqueous solution (0.5 mL × 2). The cell lysate was transferred into a test tube. The radioactivity of ^77Br was measured by an auto well gamma counter at a 100–600 keV energy range. […] The BCA protein assay kit protocol was used to determine the protein concentration.

[5] = Biodistribution of double tracers in normal mice; type: in vivo; conditions: ddY mice
Experimental: (§2) One month later, ^125I activity was determined.

[6] = tested on: H1975 and H441 tumors; assay: Biodistribution of double tracers in tumor-bearing mice; type: in vivo, BALB/c nu/nu mice
Experimental: Six weeks old male ddY mice and four weeks old female BALB/c nu/nu mice were purchased from Japan SLC Inc. (Hamamatsu, Japan). Tumor-bearing mice were prepared by subcutaneous injection of cells suspended in 100 μL medium to the female BALB/c nu/nu mice. H1975 cells (5 × 10^6 cells) were implanted in the right shoulder, and H441 cells (3 × 10^6 cells) were implanted in the left shoulder. The tumor reached palpable size after post-inoculation 12 and 9 days for H1975 and H441, respectively.
as §2

[7] = parameters: method as in PMID 32599930; conditions: ref [9]; cited from earlier work

## C=CC(=O)Nc1cc(Br)cc(Nc2nc(Nc3ccc(N4CCN(C(C)=O)CC4)cc3OC)ncc2C(F)(F)F)c1 [compound 9, N-(3-{[2-({4-[4-acetylpiperazin-1-yl]-2-methoxyphenyl}amino)-5-(trifluoromethyl)pyrimidin-4-yl]amino}-5-bromophenyl)acrylamide]
[1]
  IC50: 0.18 ± 0.06 µM
[2]
  IC50: 0.2 ± 0.01 µM
[3]
  IC50: 0.64 ± 0.04 µM

## C=CC(=O)Nc1cc([125I])cc(Nc2nc(Nc3ccc(N4CCN(C(C)=O)CC4)cc3OC)ncc2C(F)(F)F)c1 [[^125I]ICO1686]
[4]; 4 h of incubation
  accumulation in H1975 versus H3255 and H441: significantly higher
[4]; H1975
  reduction of uptake upon pretreatment with CO-1686: ~60%
[4]; H1975, 4 h, CO-1686 100 µM blocking
  accumulation of radioactivity with pretreatment with excess CO-1686: 67.7 % dose/mg protein
[4]; H1975, 4 h incubation
  accumulation of radioactivity (cell uptake): 151.3 % dose/mg protein
[4]; H1975, gefitinib 100 µM blocking
  effect of gefitinib on uptake: not significantly reduced
[5]; 10 min after i.v. injection
  Biodistribution, Blood: 1.41 % ID/g
  Biodistribution, Bone: 0.74 % ID/g
  Biodistribution, Brain: 0.08 % ID/g
  Biodistribution, Heart: 2.24 % ID/g
  Biodistribution, Kidney: 9.66 % ID/g
  Biodistribution, Large intestine: 0.94 % ID/g
  Biodistribution, Liver: 19.21 % ID/g
  Biodistribution, Lung: 3.61 % ID/g
  Biodistribution, Muscle: 1.20 % ID/g
  Biodistribution, Pancreas: 2.03 % ID/g
  Biodistribution, Small intestine: 36.32 % ID/g
  Biodistribution, Spleen: 2.73 % ID/g
  Biodistribution, Stomach: 2.60 % ID/organ
[5]; 1 h after i.v. injection
  Biodistribution, Blood: 0.17 % ID/g
  Biodistribution, Bone: 0.16 % ID/g
  Biodistribution, Brain: 0.01 % ID/g
  Biodistribution, Heart: 0.30 % ID/g
  Biodistribution, Kidney: 2.40 % ID/g
  Biodistribution, Large intestine: 1.65 % ID/g
  Biodistribution, Liver: 7.40 % ID/g
  Biodistribution, Lung: 0.59 % ID/g
  Biodistribution, Muscle: 0.23 % ID/g
  Biodistribution, Pancreas: 0.86 % ID/g
  Biodistribution, Small intestine: 40.99 % ID/g
  Biodistribution, Spleen: 0.55 % ID/g
  Biodistribution, Stomach: 1.64 % ID/organ
[5]; 4 h after i.v. injection
  Biodistribution, Blood: 0.06 % ID/g
  Biodistribution, Bone: 0.05 % ID/g
  Biodistribution, Brain: 0.01 % ID/g
  Biodistribution, Heart: 0.08 % ID/g
  Biodistribution, Kidney: 0.75 % ID/g
  Biodistribution, Large intestine: 81.54 % ID/g
  Biodistribution, Liver: 6.45 % ID/g
  Biodistribution, Lung: 0.16 % ID/g
  Biodistribution, Muscle: 0.04 % ID/g
  Biodistribution, Pancreas: 0.12 % ID/g
  Biodistribution, Small intestine: 6.08 % ID/g
  Biodistribution, Spleen: 0.20 % ID/g
  Biodistribution, Stomach: 0.76 % ID/organ
[5]; 24 h after i.v. injection
  Biodistribution, Blood: 0.13 % ID/g
  Biodistribution, Bone: 0.09 % ID/g
  Biodistribution, Feces: 71.54 % ID/organ
  Biodistribution, Heart: 0.20 % ID/g
  Biodistribution, Kidney: 0.54 % ID/g
  Biodistribution, Large intestine: 0.52 % ID/g
  Biodistribution, Liver: 1.40 % ID/g
  Biodistribution, Lung: 0.14 % ID/g
  Biodistribution, Muscle: 0.04 % ID/g
  Biodistribution, Pancreas: 0.05 % ID/g
  Biodistribution, Small intestine: 0.30 % ID/g
  Biodistribution, Spleen: 0.13 % ID/g
  Biodistribution, Stomach: 0.05 % ID/organ
  Biodistribution, Urine: 1.63 % ID/organ
[5]; 24 h postinjection
  eliminated in feces: up to 71%
[6]; 1 h after i.v. injection
  Biodistribution, Blood: 0.50 % ID/g
  Biodistribution, Bone: 0.42 % ID/g
  Biodistribution, Brain: 0.04 % ID/g
  Biodistribution, H441 tumor: 0.44 % ID/g
  Biodistribution, H1975 tumor: 0.68 % ID/g
  Biodistribution, Heart: 0.61 % ID/g
  Biodistribution, Kidney: 2.64 % ID/g
  Biodistribution, Large intestine: 27.65 % ID/g
  Biodistribution, Liver: 30.32 % ID/g
  Biodistribution, Lung: 1.62 % ID/g
  Biodistribution, Muscle: 0.36 % ID/g
  Biodistribution, Pancreas: 2.71 % ID/g
  Biodistribution, Small intestine: 86.29 % ID/g
  Biodistribution, Spleen: 1.80 % ID/g
  Biodistribution, Stomach: 1.49 % ID/organ
[6]; 6 h after i.v. injection
  Biodistribution, Blood: 0.17 % ID/g
  Biodistribution, Bone: 0.22 % ID/g
  Biodistribution, Brain: 0.02 % ID/g
  Biodistribution, H441 tumor: 0.19 % ID/g
  Biodistribution, H1975 tumor: 0.10 % ID/g
  Biodistribution, Heart: 0.53 % ID/g
  Biodistribution, Kidney: 1.05 % ID/g
  Biodistribution, Large intestine: 95.22 % ID/g
  Biodistribution, Liver: 10.16 % ID/g
  Biodistribution, Lung: 0.37 % ID/g
  Biodistribution, Muscle: 0.10 % ID/g
  Biodistribution, Pancreas: 0.36 % ID/g
  Biodistribution, Small intestine: 11.72 % ID/g
  Biodistribution, Spleen: 0.25 % ID/g
  Biodistribution, Stomach: 1.17 % ID/organ
[7]
  log P: 1.84 ± 0.01
